From patent publication US7728146B2, “Enzyme inhibitors” (Probiodrug AG, priority 2006, dated 2010) come the findings set out here.

The target of one series is DP9 (Homo sapiens, UniProt Q86TI2). The series can be described thus: DP9 assay. As to conditions: for Selectivity DP9(IC50)/DPIV(Ki): ratio IC50 DP9 / Ki DP IV. The series is classed as biochemical. The procedure:
Determination of IC50 values for DPII and DP9 are done similarly as described for DP IV.
For DP9 Gly Pro-AMC is used as substrate in a final concentration of 0.25 mM.

Series [1] in a line: Blood-brain distribution / LogBB. The series is classed as in vivo. As to conditions: male Wistar rats, bolus plus 60 min continuous i.v. infusion; for Kp at 60 min / Kp at 1 h: Wistar (Crl:WI), rat, brain and plasma, iv; for Kp at 1 h: read-out: Brain/Plasma ratio; for LogBB Mean: mean of the animals. The procedure: Male Wistar rats (N=20, 5 per Group; Crl:WI) with a body weight ranging between 300 and 350 g were purchased from Charles River Laboratories (Sulzfeld, Germany).
One week after adaptation to the housing conditions, catheters were implanted into the carotid artery and jugular vein of the rats under general anaesthesia (i.p. injection of 0.25 ml/kg b.w. Rompun® [2%], BayerVital, Germany and 0.5 ml/kg b.w. Ketamin 10, Atarost GmbH & Co., Twistringen, Germany). The animals were allowed to recover for one week. The catheters were flushed with heparin-saline (100 IU/ml) three times per week. In case of dysfunction of the catheter, a new animal were recruited to implant catheters into the carotid artery and jugular vein of this new rat under general anaesthesia. No anaesthetics were administered during infusion for compound transfer.
The bolus dose of compounds were dissolved in 10 μl DMSO and than diluted to 1 ml with saline (0.154 mol/l) and were injected via the venous catheter (n=5 rats). Thereafter, a continuous i.v. infusion of the compound solved in 10 μl DMSO and diluted to 5 ml with saline (infusion rate 0.083 ml/min; Perfusor^R fm, B. Braun, Melsungen AG, Germany) were commenced for 60 min. 150 μl arterial blood samples were taken at 0, 20, 40, 50 and 60 min and stored on ice until centrifugation (12000 rpm for 2 min). Separated plasma were frozen in liquid nitrogen for further analysis.
After 60 min primed-continuous infusion the N=5 rats were heparinized with 50 IU per 100 g b.w. heparin 5 min before the end of protease inhibitor infusion. The rats were quickly anaesthetized with i.a. ketamin® injection and bled to death from the abdominal vessels. The aorta supplying the upper part of the body were separated and canulated. The upper part of the body (including the brain) were perfused with 20 ml ice cold saline to flush the vessels free within the brain. The brains were taken out of the skull, rinsed briefly in ice cold saline and placed on filter paper.
Preparation: The brains were divided into their hemispheres, which were weighed and frozen in liquid nitrogen for further analysis.
In plasma samples and brain tissues concentrations of compounds were measured using the aforementioned LC-MS methods.

A further series concerns male Sprague Dawley rats. The series can be described thus: Tetradic encounter test. Conditions: acute. The series is classed as in vivo, rat. As to the method: Example 130b was dissolved in 0.5% Natrosol and administered acutely p.o. (gavage) 40 minutes before behavioural testing. Example 130b was administered in doses of 0.3, 1.0 and 3.0 mg/kg in a volume of 5 ml/kg, each.
Chlordiazepoxide was dissolved in 0.9% NaCl and administered acutely i.p. 30 minutes before behavioural testing with a dose of 3 mg/kg in a volume of 1 ml/kg (test group TG 2, see below). The solution was prepared freshly every day.
216 male Sprague Dawley rats. The animals were 6 weeks old at the start of the study. They were housed in groups of 4 animals (“acute animals”) or in single cages (“chronic animals”) at 12 h/12 h light/dark (start of the light phase at 2 a.m.), 20° C., 60% rH. Animals were provided by Elevage Janvier, France.
Animals were kept in group cages until compound administration. Each two animals derived from the same home cage and were treated the same way. During the time from compound administration to the beginning of the test, animals were kept in single cages for 40 minutes.
The tetradic encounter test was conducted according to the protocol of Wolffgramm (1990). Four rats were placed for 15 minutes in an open field arena of 1 m×1 m; all four animals of an encounter group were treated in the same way, they received either test compound, reference compound, or vehicle. Each two animals were from the same home cage. The open field was illuminated by dim red light (3-4 Lux). Rats were familiar with the open field and their encounter partners by means of three prior training sessions (no compound administration). Testing (compound administration) started at 2:20 p.m. (dark phase). All animals were marked individually by means of black symbols on their back. Behaviour was recorded on videotapes. Each animal was tested once.
Raw data were provided as videotapes and protocol sheets of application and test time. From the videotapes the trajectory of the animal's movement was tracked and coordinates and time stamps were continually noted in a data file. The resulting file was transferred to a computer program for further analysis.
The following parameters were calculated for the whole test phase (15 minutes): • Total distance travelled (m) • Use of available space (%) • Portion of time spent in the centre (%) • Portion of time spent in the corners (%) • Mean distance to the encounter mates (cm) • Distribution of spatial distance to the encounter mates • Dynamics of spatial distance to the encounter mates (cross-distance course) Social Behaviour
Raw data were provided as videotapes and protocol sheets of application and test time. From the videotapes the social behaviour of each rat was rated by an experienced ethologist using a list of predefined behavioural patterns. The observer was blind to the animal's treatment. The resulting file containing the time series of behavioural patterns was transferred to a computer program for further analysis.
The following parameters were calculated for the whole test phase (15 minutes): • Number of non-agonistic social acts (N) • Number of aggressive acts (N) • Number of defensive acts (N) • Time spent with non-agonistic social acts (%) • Time spent with aggressive acts (%) • Time spent with defensive acts (%) • Behavioural synchrony
To quantify inter-individual synchrony, coefficients of synchrony were calculated that base on rank correlation coefficients. For this purpose, the time series of behavioural patterns was subdivided into equidistant interval sections (here: 1 s intervals). To calculate synchrony coefficients, the user must define “pattern sets of interest”. Each set contained one or more behavioural patterns that were taken together for the analysis (e.g. “friendly contact” or “all kinds of social interaction”). […]

Where [2] appears, read: vs vehicle, Chlordiazepoxide 3 mg/kg i.p., Example 130b low and high dose (0.3 and 3.0 mg/kg p.o.).
Where [3] appears, read: vs vehicle, Example 130b high dose (3.0 mg/kg p.o.).

Molecules are shown by their SMILES. pIC50, pKi: −log10 of the molar value.

Sequence of DP9 (Q86TI2 whole entry, species assumed): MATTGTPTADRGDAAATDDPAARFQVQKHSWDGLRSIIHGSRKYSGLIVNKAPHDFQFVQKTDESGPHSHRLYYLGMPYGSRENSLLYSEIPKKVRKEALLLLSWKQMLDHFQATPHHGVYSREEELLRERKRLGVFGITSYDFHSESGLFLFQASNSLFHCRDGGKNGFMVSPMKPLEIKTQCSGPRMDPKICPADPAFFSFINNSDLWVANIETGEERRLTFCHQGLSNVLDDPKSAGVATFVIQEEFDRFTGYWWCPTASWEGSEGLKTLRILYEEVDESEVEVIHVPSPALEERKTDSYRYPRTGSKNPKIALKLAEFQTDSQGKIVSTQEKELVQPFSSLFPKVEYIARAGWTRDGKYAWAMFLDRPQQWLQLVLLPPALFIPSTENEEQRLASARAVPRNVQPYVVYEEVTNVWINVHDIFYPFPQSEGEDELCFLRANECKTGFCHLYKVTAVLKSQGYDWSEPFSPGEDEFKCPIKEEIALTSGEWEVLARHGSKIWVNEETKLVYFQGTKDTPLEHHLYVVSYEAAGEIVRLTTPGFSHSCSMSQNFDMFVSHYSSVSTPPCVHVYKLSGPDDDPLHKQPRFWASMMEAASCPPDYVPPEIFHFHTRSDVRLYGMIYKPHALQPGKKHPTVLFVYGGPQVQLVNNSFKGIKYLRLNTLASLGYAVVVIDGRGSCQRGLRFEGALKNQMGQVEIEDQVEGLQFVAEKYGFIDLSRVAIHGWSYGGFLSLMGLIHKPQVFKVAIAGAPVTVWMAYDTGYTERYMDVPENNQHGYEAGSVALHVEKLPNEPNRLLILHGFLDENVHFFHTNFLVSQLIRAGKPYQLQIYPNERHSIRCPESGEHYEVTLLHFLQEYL

`NCc1c(-c2ccc(Cl)cc2Cl)ncn1Cc1ccccc1` [Example 24b, (1-benzyl-4-(2,4-dichlorophenyl)-1H-imidazol-5-yl)methanamine]: the “Selectivity DP9(IC50)/DPIV(Ki)” value at DP9 was 25,527. For the same molecule, the LogBB in series [1] (Animal No. 1) is on record as −0.36; in series [1] (Animal No. 2), −0.33; in series [1] (Animal No. 3) it was −0.26; in series [1] (Animal No. 4) it was −0.34; in series [1] (Animal No. 5), −0.29. For the same molecule, in series [1], the Kp at 60 min was found to be 0.483. The Kp at 1 h in series [1] was found to be 0.483. In addition, the “LogBB Mean” value in series [1] is −0.3160.

Take `NCc1c(-c2ccc(Cl)cc2Cl)ncn1Cc1ccccn1` [Example 39b]: the “Selectivity DP9(IC50)/DPIV(Ki)” value at DP9 was 20,951. Further, the LogBB was −0.56 in series [1] (Animal No. 1); −0.43 in series [1] (Animal No. 2); −0.53 in series [1] (Animal No. 3); −0.38 in series [1] (Animal No. 4); −0.39 in series [1] (Animal No. 5). In series [1], the Kp at 60 min stood at 0.275. In series [1], the Kp at 1 h stood at 0.275. Further, in series [1], the “LogBB Mean” value is −0.4580.

For `NCc1c(-c2ccc(Cl)cc2Cl)ncn1Cc1cccnc1` [Example 121b, (4-(2,4-dichlorophenyl)-1-((pyridin-3-yl)methyl)-1H-imidazol-5-yl)methanamine], on DP9, the “Selectivity DP9(IC50)/DPIV(Ki)” value is listed as 34,797. In addition, the LogBB in series [1] (Animal No. 1) was −0.57; in series [1] (Animal No. 2), −0.50; in series [1] (Animal No. 3), −0.70; in series [1] (Animal No. 4), −0.91. The Kp at 60 min in series [1] worked out at 0.214. For the same molecule, the Kp at 1 h in series [1] came to 0.214. In series [1], the “LogBB Mean” value is −0.6700.

Consider `NCc1c(-c2ccc(Cl)cc2Cl)ncn1Cc1ccsc1` [Example 130b, (4-(2,4-dichlorophenyl)-1-((thiophen-3-yl)methyl)-1H-imidazol-5-yl)methanamine], for which, at DP9, the pKi is 4.67 and the “Selectivity DP9(IC50)/DPIV(Ki)” value is 12,653. Also, at DP9 (Gly Pro-AMC 0.25 mM), the pIC50 was 4.01. For the same molecule, in the series on male Sprague Dawley rats (tetradic encounter, Chlordiazepoxide 3 mg/kg i.p., Example 130b 0.3-3.0 mg/kg p.o.), the locomotor activity result is recorded as “altered locomotor activity”. Further, the “inter-individual synchrony of behaviour” value in the series on male Sprague Dawley rats (vs vehicle, Chlordiazepoxide 3 mg/kg i.p., Example 130b 0.3, 1.0, 3.0 mg/kg p.o. (especially the high dose increased synchrony)) is reported as “strong effects”. In the series with male Sprague Dawley rats (setting [2]), the “distance to the encounter mates” value is “significantly higher distance” and the “number of defensive acts” value is listed as “statistically significant increase”. For the same molecule, the “time spent in a distance of 75-100 cm to encounter mates” value with male Sprague Dawley rats (vs vehicle, Chlordiazepoxide 3 mg/kg i.p., Example 130b low and medium dose (0.3 and 1.0 mg/kg p.o.)) is listed as “higher amount”. Moreover, the “time spent in a distance of 25-50 cm to encounter mates” value with male Sprague Dawley rats (vs vehicle, Chlordiazepoxide 3 mg/kg i.p., Example 130b low dose (0.3 mg/kg p.o.)) is listed as “significantly lower amount of time”. Further, the “time spent with friendly (non-agonistic) social behaviour” value with male Sprague Dawley rats (vs vehicle, Chlordiazepoxide 3 mg/kg i.p., Example 130b medium dose (1.0 mg/kg p.o.)) is on record as “tended to increase”. In the series on male Sprague Dawley rats (setting [3]), the “time spent in a distance of 50-75 cm to encounter mates” value is “higher amount”, the “time spent in a distance of less than 25 cm to encounter mates” value is on record as “significantly lower amount of time”, the “time spent in the centre of the open field” value is listed as “significantly increased” and the “usage of available space” value is listed as “significantly increased”. Moreover, the “distance travelled during the first five minutes of the test” value in the series with male Sprague Dawley rats (vs vehicle, Example 130b low and high dose (0.3 and 3.0 mg/kg p.o.)) is “statistically significant increase”. Further, the “time spent in a distance of more than 100 cm to encounter mates” value in the series with male Sprague Dawley rats (vs vehicle, Example 130b low dose (0.3 mg/kg p.o.)) is given as “higher amount”. Besides, the LogBB in series [1] (Animal No. 1) was −0.65. Besides, the LogBB in series [1] (Animal No. 2) is on record as −0.63. Moreover, the LogBB in series [1] (Animal No. 3) is given as −1.03. The LogBB in series [1] (Animal No. 4) is −0.12. In series [1] (Animal No. 5), the LogBB is given as −0.76. Besides, in series [1], the Kp at 60 min was 0.23, the Kp at 1 h was 0.23 and the “LogBB Mean” value is on record as −0.6380.

What is called pKi is −log10 of the Ki, conventionally taken in molar units. Read a high pKi as a small Ki. Broadly, the pIC50 is −log10 of the IC50, conventionally taken in molar units. A low value points to a large IC50.
